Reference: patent publication EP4670722A1, “PROPHYLACTIC OR AMELIORATING AGENT FOR CELL AGING” (Kyowa Pharma Chemical Co., Ltd., priority 2023, dated 2024)

Test system: GLS1
Experiment: GLS1 expression analysis (Western blot) in HEK293
Type: cell-based
Details: human embryonic kidney cells (HEK293), at least 200 µg/mL or more, 24 hours; effect increased from 200 to 1000 µg/mL; Fig. 12
Protocol: Human embryonic kidney cells (HEK293) were cultured in DMEM containing 10% FBS. The cultured cells were collected by trypsin treatment. The collected cells were seeded in a 6-well plate, and when they reached 100% confluence, DMEM containing 2'-FL as a test sample at 50 µg/mL, 200 µg/mL, or 1000 µg/mL, and lactose at 50 µg/mL or 200 µg/mL was added, and cultured for 24 hours in a 37°C, 5% CO2 incubator. The culture supernatant was removed, the cells were washed twice with phosphate-buffered saline (PBS), and 0.20 mL of RIPA buffer (manufactured by Nacalai Tesque, Inc.) was added to extract total protein. Protein in each protein extract was quantified by the Bradford assay.
Protein extracts were collected in the same manner as in [Example 10-1 A. Human embryonic kidney cells (HEK293)], except that DMEM not containing the test sample was used instead of DMEM containing the test sample, and protein in each protein extract was quantified by the Bradford assay.
Western blot analysis was performed on each protein extract using an anti-GLS1 antibody and an anti-β-actin antibody. […] The intensity of color development was quantified using the open-source software 'ImageJ'. The relative value of the GLS1 amount relative to the β-actin amount when each test sample was added was calculated, with the GLS1 amount relative to the β-actin amount in the control set to 1. […]

For `C[C@@H]1O[C@@H](O[C@H]2[C@H](O[C@H]3[C@H](O)[C@@H](O)C(O)O[C@@H]3CO)O[C@H](CO)[C@H](O)[C@@H]2O)[C@@H](O)[C@H](O)[C@@H]1O` (stereo partly shown) [2'-FL, 2'-fucosyllactose], the GLS1 expression was “suppressed GLS1 expression”.
